{"source": "patent US20260108547A1", "about": "“LEVERAGING L-FUCOSE-MEDIATED SIGNALING TO INDUCE MONOCYTE-DERIVED DENDRITIC CELL POLARIZATION” (H. LEE MOFFITT CANCER CENTER AND RESEARCH INSTITUTE, INC., priority 2022, published 2026)", "key": {"SW1 tumors [1]": {"system": "SW1 tumors", "test": "Volumetric tumor growth, SW1 melanoma in C3H/HeN mice (incl. immunodepletion, FTY720, anti-PD1)", "format": "in vivo, mouse", "conditions": "SW1 model", "from_the_text": "All animals were housed at the Vincent A. Stabile Research building animal facility at H. Lee Moffitt Cancer Center & Research Institute, which is fully accredited by the Association for Assessment and Accreditation of Laboratory Animal Care International (AAALAC, #434), and are managed in accordance with the Guide for the Care and Use of Laboratory Animals (“The Guide”), the Animal Welfare Regulations Title 9 Code of Federal Regulations Subchapter A, “Animal Welfare”, Parts 1-3 (AWR), the Public Health Service Policy on Humane Care and Use of Laboratory Animals (PHS Policy), and by the USF Institutional Animal Care and Use Committee's Principles and Procedures of Animal Care and Use (IACUC Principles). The experiments and protocols detailed in this study received institutional approval by the Moffitt IACUC (RIS00001625). Four-to-six-week-old female C3H/HeN and male C57BL6 mice were purchased from Charles Rivers Laboratories for the indicated experiments. Four-to-six-week-old male NSG mice from the Lau laboratory breeding colony were used for the indicated experiments. Power calculations were used to determine mouse cohort sizes to detect significant changes in tumor sizes. In general, 10 mice per indicated cohort to accommodate for incidental loss of mice due to issues beyond our control (e.g., incidental tumor ulceration that required exclusion from the study). Mouse tumor volumes were measured using length, width and depth divided by 2. At each experimental endpoint, mice were humanely euthanized using CO2 inhalation in accordance to the American Veterinary Medical Association guidelines.\nFor all mouse models, 1×10^6 melanoma cells were injected subcutaneously in the right hind flanks of each mouse. […] This dosage is within ranges for dietary supplementation with L-fucose and other similar dietary sugars (e.g., D-mannose) in other rodent studies. When the tumors reached −2 cm^3, the animals were sacrificed, and the tumors either processed for flow cytometric profiling or for histological analysis as indicated.\n(§1) Control vs. mFuk±L-fucose models (FIG. 1 & FIG. 8): SW1 or SM1 mouse melanoma cells were injected into syngeneic C3H/HeN (or NSG) female or C57BL/6 male mice, respectively, as follows: parental SW1 cells for FIG. 1A; parental SM1 cells for FIG. 1E; SW1 cells stably expressing either empty vector (EV) or mouse fucose kinase (mFuk) for FIG. 1L; and parental SW1 cells for FIG. 1M.\nas §1, with “L-fucose±FTY720” for “mFuk±L-fucose”, “2):” for “1 & FIG. 8):”, “respectively. Cells were injected” for “respectively,”, “1M. FTY720 was administered at 20 μg every 2 days starting on Day 12, just prior to the initiation of LF, until endpoint.” for “1M.”\nImmunodepletion mouse models (FIG. 1 & FIG. 8): Three days prior to tumor engraftment, PBS (control) or ˜300 μg α-CD4 (20 mg/kg, for immunodepletion, GK1.5, Bioxcell (West Lebanon, NH)) or 0-CD8 (20 mg/kg, for immunodepletion, 2.43, Bioxcell (West Lebanon, NH)) was administered by intraperitoneal injection into the indicated cohorts of mice. Injections of immunodepletion antibody or PBS were continued every 3-4 days until endpoint. Syngeneic recipient C3H/HeN female or C57BL/6 male mice were injected with SW1 or SM1 cells, respectively. […]"}, "SW1 tumors [2]": {"system": "SW1 tumors", "test": "SW1 tumor growth in NSG (immunodeficient) mice", "format": "in vivo, mouse", "from_the_text": "All animals were housed at the Vincent A. Stabile Research building animal facility at H. Lee Moffitt Cancer Center & Research Institute, which is fully accredited by the Association for Assessment and Accreditation of Laboratory Animal Care International (AAALAC, #434), and are managed in accordance with the Guide for the Care and Use of Laboratory Animals (“The Guide”), the Animal Welfare Regulations Title 9 Code of Federal Regulations Subchapter A, “Animal Welfare”, Parts 1-3 (AWR), the Public Health Service Policy on Humane Care and Use of Laboratory Animals (PHS Policy), and by the USF Institutional Animal Care and Use Committee's Principles and Procedures of Animal Care and Use (IACUC Principles). The experiments and protocols detailed in this study received institutional approval by the Moffitt IACUC (RIS00001625). Four-to-six-week-old female C3H/HeN and male C57BL6 mice were purchased from Charles Rivers Laboratories for the indicated experiments. Four-to-six-week-old male NSG mice from the Lau laboratory breeding colony were used for the indicated experiments. Power calculations were used to determine mouse cohort sizes to detect significant changes in tumor sizes. […] Mouse tumor volumes were measured using length, width and depth divided by 2. […]"}, "HLA-DRB1": {"system": "HLA-DRB1", "test": "qRT-PCR and immunoblot of HLA-DRB1 mRNA and protein levels in melanoma cells", "format": "cell-based, human", "conditions": "250 μM", "description": "Cells were lysed on ice in RIPA lysis buffer (25 mM Tris-HCl pH 7.6, 150 mM NaCl, 5 mM EDTA, 1% NP-40 or 1% Triton X-100, 1% sodium deoxycholate, 0.1% SDS in diH2O+protease and phosphatase inhibitors (ThermoFisher Scientific (Waltham, MA)), briefly sonicated, pelleted, and the resulting lysates were normalized by protein concentration using DC assay (BioRad Laboratories, (Hercules, CA)). The indicated samples were subjected to (12%) SDS-PAGE and immunoblot analysis using the indicated antibodies. Immunoblot imaging and analysis was performed using either an Odyssey FC scanner and ImageStudio (LiCor Biosciences, Lincoln, NE) or film.\nRNA from cells subjected to the indicated treatments was extracted using Gene Elute Mammalian Total RNA Extraction System (Millipore Sigma (St. Louis, MO)). RNA was reversed transcribed to cDNA using High-Capacity cDNA Reverse Transcription Kit (ThermoFisher Scientific (Waltham, MA)). qRT-PCR analysis was performed using FastStart Universal SYBR Green Master Mix (Rox) (Roche Diagnostics, (Indianapolis, IN)) using a BioRad CFX96 Real-time system (BioRad Laboratories, (Hercules, CA)). The qRT-PCR cycles used were as follows: 95° C. for 10 min, 35 cycles of 95° C. for 15 seconds, 55° C. for 60 seconds,\nand 72° C. for 30 seconds. Expression of the indicated genes was normalized to histone H3A expression. […]"}, "BMMC": {"system": "BMMC", "test": "Flow cytometric DC polarization of BMMC", "format": "cell-based", "description": "We next investigated the effect of L-fucose on dendritic cell differentiation. To test whether L-fucose affected immature or mature myeloid cells preferentially, BMMC were treated with L-fucose at various stages of development, pre=before maturation cocktail, concurrent=during maturation cocktail or post=after maturation cocktail (FIG. 23A). […] We next sought to determine if L-fucose equally affected subpopulations of DCs. By flow cytometric analysis we were able to determine that moDC are affected most by the modulation of fucosylation in immature myeloid cell populations."}, "[3]": {"test": "Mouse models of tumor growth and metastasis, dietary L-fucose supplementation", "format": "in vivo"}}, "data": [{"smiles": "C[C@H](O)[C@@H](O)[C@@H](O)[C@H](O)C=O", "note": "[L-fucose]", "values": [{"measurement": "reduction of tumor growth", "setting": "SW1 tumors [1]; CD4+T cell depletion", "result": "completely abrogated"}, {"measurement": "efficacy of anti-PD1 when combined with oral L-fuc", "setting": "SW1 tumors [1]; L-fuc in combination with anti-PD1", "result": "did not enhance efficacy of anti-PD1"}, {"measurement": "reduced tumor growth", "setting": "SW1 tumors [1]; control and CD8+ T cell-depleted mice", "result": "> 50", "unit": "%"}, {"measurement": "reduced tumor growth", "setting": "SW1 tumors [1]; oral L-fuc", "result": "~50", "unit": "%"}, {"measurement": "SW1 tumor growth in immunodeficient mice", "setting": "SW1 tumors [2]", "result": "did not reduce"}, {"measurement": "HLA-DRB1 mRNA and protein levels", "setting": "HLA-DRB1", "result": "remained unchanged"}, {"measurement": "polarization of myeloid cells (DC subpopulations)", "setting": "BMMC; flow cytometric analysis", "result": "polarizes myeloid cells towards a moDC phenotype"}, {"measurement": "absolute DC numbers", "setting": "BMMC; flow cytometric profiling of BMMCs", "result": "without affecting absolute DC numbers"}, {"measurement": "DC polarization of BMMC", "setting": "BMMC; treated pre, concurrent or post maturation cocktail", "result": "leads to DC polarization of BMMC at any stage of myeloid development"}, {"measurement": "blocks tumor growth and metastasis", "setting": "[3]", "result": "> 50", "unit": "%"}]}]}
